Series [1] is described as follows: XRPD analysis of crystallinity (amorphous stability) of spray dried dispersions on storage. The format is physicochemical. As to conditions: stored at room temperature under vacuum (FIG. 8). Here is the method:
All dispersions were spray dried using a Niro SD spray dryer connected to a nitrogen generator.
Solutions for dispersions were prepared by dissolving griseofulvin, a major excipient (PVP) and a minor excipient in an acetone water co-solvent system. To ensure homogeneity, the dispersions were allowed to mix for eight hours before the dispersion was spray dried using a Niro SD system under nitrogen conditions with an inlet temperature of 65° C. and an outlet temperature of 45° C. The feed rate was around 15% of maximum and the nitrogen flow rates were 20 kg/hr and 2 kg/hr for the drying and atomization rates respectively.
The samples were then stored under constant vacuum for 24 hours to allow for the removal of solvent before being transferred to the required conditions.
A Philips PW37010 X-ray Powder Diffractometer (Philips, Cambridge, UK) was used to analyse the samples for crystallization, with a sample XRPD scans shown in FIGS. 1a and 1b.
This was compressed to produce a flat surface before being loaded into the XRPD. […]
Pure crystalline griseofulvin or flavanone was subjected to the same methodology to produce a standard XRPD scan. A number of peaks were selected from each of these standards to produce a 100% crystalline value expressed as X-ray count/°2Θ these were then compared with the area under the peaks of the dispersions to produce percentage crystallinity values.

For series [2] the following is noted: indomethacin with PVP, hydrogen bonding; cited from earlier work.
The nature of series [3]: Dissolution, USP paddle method. Type of series: physicochemical. The settings on record: pH6.8 buffer at 37 C, 100 rpm (FIG. 11). Here is the method: Dispersions were prepared as described above containing Gris:PVP 1:1; Gris:PHPMA:PVP 2.5:1.25:1.25, and compared to Gris spray dried without polymer and crystalline Gris. Dissolution data were prepared by placing a small amount of sample in a hard gelatine capsule and following dissolution in pH6.8 buffer at 37 C (with added surfactant if dispersion was required), using a USP paddle method.

For series [4] the following is noted: griseofulvin dispersed in PVP (high Tg polymer); cited from earlier work.

SMILES strings stand for the structures.

Regarding `O=C1CC(c2ccccc2)Oc2ccccc21` (centres unmarked) [Flavanone], the “crystallinity by XRPD” value is “near completely crystalline” in series [1] (Flavanone dispersed with PVP); “only partial crystallinity” in series [1] (Flavanone dispersed with a combination of PHPMA and PVP). With `COc1ccc2c(c1)c(CC(=O)O)c(C)n2C(=O)c1ccc(Cl)cc1` [Indomethacin], the amorphous stability result in series [2] was “above that expected on the basis of glass transition temperature alone”. Turning to `COC1=CC(=O)C[C@@H](C)[C@]12Oc1c(Cl)c(OC)cc(OC)c1C2=O` [griseofulvin, Griseofulvin], the dissolution result in series [3] is on record as “slow dissolution”. Moreover, in series [4], the “crystallisation of drug dispersed in polymer” value was “relatively rapid crystallisation”.

The values above are taken from patent publication US20080227855A1, “Solid Dispersion of Hydrophobic Bioactive” (priority 2005, published 2008).
